These results are taken from doi:10.1101/2024.05.17.594634, “Protein Structure Inspired Drug Discovery” (bioRxiv, 2024).

Structures are written as SMILES. Bounds are passed on as bounds.

One assay relates to SK-MEL-5 cells. Kind of assay: Cell cycle analysis by flow cytometry, SK-MEL-5. It counts as cell-based, human. Particulars: 50 nM, eight days. The method, then: (§1) Fig 8. Dxr2-017 inhibits melanoma cell growth through induction of anoikis. (A) Inhibition of melanoma cell growth. Cells were treated with different concentrations of Dxr2-017 and formation of colonies at eight days depicted. Data are expressed as percent of untreated control and are the mean ± SEM (N=3 replicates) of a single experiment. (B) No effect on cycle progression. M14 and SK-MEL-5 cells were treated for 8 days with 20 and 50 nM Dxr2-017, respectively, and phase of cell cycle determined by flow cytometry. Data are the mean ± SEM (N=3). *denotes P-value ≤0.05. (C) Transition to floating cells. Cells were treated for three days with different Dxr2-017 concentrations. Depicted are representative light photomicrographs at 20X; scale bar is150 μm. Blue and green arrows denote adherent and floating cells, respectively. (D) Cleaved caspase 3 is induced in floating cells. Cells were treated for 3 days, cell lysate from only adherent cells, or from adherent and floating cells combined, was probed by Western blot for cleaved caspase 3. All experiments were repeated at separate times, yielding similar results.
(§2) A total of 1 × 10^4 M14 cells and 1 × 10^4 SK-MEL-5 cells were seeded into 10 cm culture dishes. […] Cells were analyzed by flow cytometry (FACSCalibur3 analyzer, BD Biosciences), and the percentage of cells within G0/G1, S, and G2/M phases were determined via analysis using Modfit LT 4.0.5.
(In general: A flow cytometer gives signals particle by particle.)

The test system of another assay is human melanoma M14 cells. Kind of assay: Eight-day colony formation assay, M14. It is filed as cell-based. Particulars: for IC50: M14, eight-day assay, mean ± SEM. The procedure:
(§3) We next evaluated the effect of Dxr2-017 on human melanoma M14 and SK-MEL-5 cell lines in eight-day assays (Fig 8A).
as §1
(§4) Eight-day colony formation assays of cancer cells were performed as described by us.[87] Briefly, 0.5–1.0 × 10^3 cells were seeded into a 12 well plate, after 24 hours compound added and eight days later colonies (of 3 or more cells) were scored after trypan blue staining. Conditions were in replicates of N = 2. All compounds were stored under desiccated conditions in a sealed container at minus 20°C upon arrival. One day prior to use, they were placed into DMSO, stored at […] as stock solutions, thawed just prior to use, and not reused.

Assay [1] concerns MDA-MB-231 breast cancer cells. Kind of assay: Eight-day colony formation assay, MDA-MB-231. It is filed as cell-based, human. Particulars: for efficacy ratio (cancer cell colonies to bone marrow colonies at 8 days): MDAMB231. The procedure:
(§5) We sought to identify compounds that would inhibit the growth of cancer cells, but that also did so selectively. Inhibition of cancer cell growth is a highly sought after attribute of anticancer agents. This was assessed by measuring the ability of a compound to inhibit cell growth in eight-day colony formation assays, examining concentrations ranging from 0.017 to 40 μM. Breast, colon, lung and prostate cancer are four of the most common causes of cancer in the United States, are major causes of cancer cell death, and were examined.[64] Two cell lines for each cancer type were assessed: A549 (adenocarcinoma) and H226 (squamous carcinoma) for lung, MCF-7 (estrogen receptor [ER] positive) and MDA-MB-231 (ER negative) for breast, LNCaP (androgen receptor [AR] positive) and PC3-M (AR negative) for prostate, and HCT116 (wild type p53, mutated KRAS) and HT29 (p53 mutant) for colon.[65]
(§6) In considering effect on cancer cells, for each compound and each cell line tested we calculated the efficacy ratio, i.e., efficacy ratio = (percent of remaining cancer cell colonies)/(percent of remaining bone marrow colonies), at 8 days after treatment with 40 μM compound (S4 Fig). We considered those with an efficacy ratio below 0.5 as active and at least partially selective. The stringency of this is highlighted by considering the effect of 5FU on colon cancer, where it is frequently used clinically in proven curative settings, as well as proven life prolonging settings.[70, 71] […] Even at 5.7 μM, where 5FU is toxic to bone marrow, with hematopoietic colony formation at 38% of control, the efficacy ratio for HT29 cells has only dropped to 0.52. […] It can be seen that compounds segregate to protein sites. Specifically, of 10 compounds meeting this activity criteria (i.e., efficacy ratio <0.5), 3 were directed at the Dxr2 site, 3 at FolC2, 2 at FolC1, 1 at Dxr1 and 1 at TYLT.
as §4

Assay [2] has as its system LNCaP prostate cancer cells. The assay is described as follows: Eight-day colony formation assay, LNCaP. It is filed as cell-based, human. The method, then: as §5, §6, §4
In assay [3] the test system is human breast, prostate, colon and lung cancer cells. Kind of assay: Eight-day colony formation assays, summary across the cancer cell line panel. It is filed as cell-based. The procedure: as §5, §6, §4
The next assay concerns A549 lung cancer cells. Kind of assay: Eight-day colony formation assay, A549. It is filed as cell-based, human. The method, then:
as §5, §6, §4

The subject of a further assay is M14 cells. The assay is described as follows: Cell cycle analysis by flow cytometry, M14. It counts as cell-based, human. Particulars: 20 nM, eight days. The method, then:
as §1, §2

The next assay relates to HT116 colon cancer cells. The assay is described as follows: Eight-day colony formation assay, HT116. It is filed as cell-based, human. The method, then:
as §5, §6, §4

The next assay has as its system HT29 colon cancer cells. The assay is described as follows: Eight-day colony formation assay, HT29. It is filed as cell-based, human. The procedure: as §5, §6, §4
For assay [4], the system named is human melanoma SK-MEL-5 cells. Kind of assay: Eight-day colony formation assay, SK-MEL-5. It counts as cell-based. The method, then: as §3
as §1, with “Cells were treated for 3 days, cell lysate from only adherent cells, or from adherent and floating cells combined, was probed by Western blot for cleaved caspase 3. All experiments were repeated at separate times, yielding similar results.” left out
Eight-day colony formation assays of cancer cells were performed as described by us.[87] Briefly, 0.5–1.0 × 10^3 cells were seeded into a 12 well plate, after 24 hours compound added and eight days later colonies (of 3 or more cells) were scored after trypan blue staining. […]

For orientation: IC50 means the point on the concentration scale where inhibition reaches its midpoint. A low value points to greater potency in that assay. Broadly, the inhibition is the drop in the measured response relative to a control, in per cent. `c1ccc2sc(-c3ccc(CNc4ccc5nnnn5n4)o3)nc2c1` [Dxr2-017]: the “change in cell cycle parameters” value in the assay on SK-MEL-5 cells and with M14 cells was “little-to-no change in cell cycle parameters” throughout. For the same compound, the half-maximal inhibitory concentration (IC50) with human melanoma M14 cells (Homo sapiens, M14, 192 h) is 19 nM; in the assay on human melanoma M14 cells, 19.7 ± 7.4 nM; in [4] (Homo sapiens, 192 h, SK-MEL-5, eight-day assay, mean ± SEM), 51.7 ± 16.4 nM. The “fold efficacy versus bone marrow stem cells” value with human melanoma M14 cells (M14 IC50 compared to 40 μM eight-day bone marrow treatment) is on record as “over 2100 fold”; in [4] (SK-MEL-5 IC50 compared to 40 μM eight-day bone marrow treatment) it was > 750 fold. In addition, the “efficacy ratio (cancer cell colonies to bone marrow colonies at 8 days)” value is recorded as 0.05 in assay [1] (5.7 μM); 0.00 in assay [1] (40 μM); 0.49 in [2] (5.7 μM); 0.05 in assay [2] (40 μM); 1.26 with A549 lung cancer cells (5.7 μM); 0.07 in the assay with A549 lung cancer cells (40 μM). The “efficacy ratio (cancer cell colonies to bone marrow colonies at 8 days)” value with HT116 colon cancer cells (5.7 μM) was determined as 0.69; with HT116 colon cancer cells (40 μM) it was 0.08; in the assay on HT29 colon cancer cells (5.7 μM) it was 0.03; in the assay with HT29 colon cancer cells (40 μM), 0.00. For the same compound, the inhibition at 0.12 µM in assay [1] (Homo sapiens, 0.12 μM, MDA-MB-231, mean ± SD, read-out: inhibition of colony formation compared to control) stood at 81.7 ± 15.5%; in the assay with HT29 colon cancer cells (Homo sapiens, HT-29, 0.12 μM, mean ± SD, read-out: inhibition of colony formation compared to control) it was 91.1 ± 4.8%. The “relative activity for a given compound, % (% of cells tested where ratio is <0.5)” value was 75% in [3] (5.7 μM) and 100% in assay [3] (40 μM). Besides, the “mean efficacy ratio for cells where the efficacy ratio is below 0.5” value in assay [3] (5.7 μM, mean ± SEM) was 0.25 ± 0.091. Also, the “mean efficacy ratio for cells/compounds where the efficacy ratio is below 0.5” value in [3] (40 μM, mean ± SEM) is 0.03 ± 0.01.
